Legend:
[1] = In vitro metabolism rate determination, rat liver microsome (RLM) assay; format: in vitro ADME; settings: rat liver microsomes, substrate 1 μM; read-out: RLM (intrinsic clearance)
From the text: In vitro Metabolism Rate Determination (Human Liver Microsome (HLM); Rat Liver Microsome (RLM) Assay)
Many drugs are metabolised by the cytochrome P450 mono-oxygenase system. This enzyme is found in high concentrations in the liver and is bound to the endoplasmic reticulum of the hepatocyte. The enzyme system can be obtained in semi-purified state by the preparation of the hepatic microsomal fractions. Determining a compound's in vitro half-life in such a system provides a useful indicator of metabolic stability.
Methodology For In Vitro Rate Determination Using Hepatic & Supermix Microsomes
The method outlined below is for a total incubation volume of 1.5 ml.
1. The following mixture is prepared in a test tube:
2. Defrost microsomes at room temperature and add sufficient microsomes to give a final concentration of 0.5 nmol cytochrome P450/ml of incubation e.g. for a 1.5 ml incubation, the volume of microsomes to be added is:
[formula] 3. Add sufficient MilliQ water to give a total incubation volume of 1.425 ml. 4. Remove 237.5 μl of incubation mix and place in test tube for PNA positive control. Add 2.5 μl of PNA solution, whirlimix, and put tube into a rack in the thermostatically controlled shaking water bath 5. Remove 100 μl for no substrate control and dispense in test tube. Place test tube in a rack in the thermostatically controlled shaking water bath. 6. Add substrate to the incubation. The substrate should be at an initial concentration of 1 μM. The volume of substrate required in the remaining 1.162.5 ml incubation is calculated as follows:
[formula] • N.B. The volume of organic solvent added should not exceed 0.1% of the total incubation volume. 7. Remove 100 μl of incubation mix into test tube for no cofactor control. Whirlimix and put into a rack in the thermostatically controlled shaking water bath. 8. Pre-incubate the tube containing the incubation mix, also positive control and no cofactor tubes in the thermostatically controlled shaking water bath set at 37° C. for approx 5 min. 9. Add NADP to initiate reaction (75 μl to each 1.162.5 ml incubation mix, 12.5 μl to positive control tube and 5 μl to no substrate tube) and take first time point immediately. The PNA positive control, no cofactor control and no substrate tubes are incubated for the total incubation time. 10. Remove 100 μl aliquots up to 9 different sampling points from 0 to 60 min (usually 0, 3, 5, 10, 15, 20, 30, 45 & 60 min) and terminate reaction. Longer incubation times can be used, but, after 120 min the microsomes deteriorate. The reaction may be terminated by addition of organic solvent, acid or base. At the end of the incubation process the no cofactor and no substrate controls in a similar manner i.e. terminate with the same reagent. 11. PNA Positive Control Procedure: • After the final sample has been taken, remove the positive control and add 1 ml 20% TCA to this tube. Also prepare a tube containing 250 μl of a PNP standard at 50 μM, and add 1 ml 20% TCA. Whirlimix both tubes and leave for approx 5 min to allow the protein to precipitate. • Centrifuge both tubes for approx 5 min in an instrument set at 3500 rpm. Remove 1 ml of supernatant and place into clean test tubes, discard the remainder. • Add 1 ml 10M NaOH to the supernatant, whirlimix, and leave to stand for approx min. Blank spectrophotometer with distilled water at 400 nm then measure absorbance of the PNP standard against distilled water. The microsomal 4-nitroanisole O-demethylase activity is calculated as follows: Calculation of Results
[formula] • The activity value from the incubation MUST be equal to or greater than 85% of the mean value of the batch used for the incubation to be valid. If this criteria is not met, then the incubation must be repeated. 11. Analyse samples (including no cofactor and no substrate control) by a specific assay for the substrate to determine the disappearance kinetics. Analysis Of Data […]

CYP3A4 = molecular target: T1, CYP3A4 (Homo sapiens, UniProt P08684); assay: High density drug-drug interactions (DDI) 3 μM cocktail screen in human liver microsomes; format: in vitro ADME; settings: 3 uM test compound, pooled human liver microsomes, probe midazolam 2 μM; read-out: % Inhibition of 3A4 metabolism at 3 uM
T1 construct: utilizes human liver microsomes together with isoform-specific clinical drug probes; from tissue; host or cells: human liver microsomes
Protocol: High Density Drug-Drug Interactions (DDI) 3 μM Cocktail Screen
A drug interaction is a situation in which a substance affects the activity of another drug, i.e. the effects are increased or decreased, or together they produce a new effect that neither produces on its own. Drug interactions may be the result of various processes but a relatively common one is where one drug affects the pharmacokinetics of another by inhibiting the cytochrome P450 that metabolises it. Because of the importance of these phenomena, assessment of the DDI potential for new chemical entities (NCEs) is considered important early on in the drug discovery process.
The DDI cocktail screen in human liver microsomes (HLM) is run in a fully automated fashion and the aim of the screen is to provide a single-point assessment of the DDI potential of new chemical entity (NCE; tested at 3 μM) against the 4 primary cytochrome P450 enzymes, 1A2, 2D6, 2C9 and 3A4.
The substrate cocktail approach for P450 DDI utilizes human liver microsomes together with isoform-specific clinical drug probes and permits the simultaneous measurement of the inhibition of P450 1A2, 2C9, 2D6 & 3A4 activities in a single incubation. This is run in high throughput with simultaneous detection of metabolites by LC-MS/MS. This method has been thoroughly tested and evaluated using standard compounds.
Appearance of the metabolite of each substrate is measured over time in the presence and absence of the NCE (test compound/inhibitor) at a concentration of 3 μM. The compounds are assessed for their inhibitory potential as a percentage value and interpreted using the following scheme.

T1 sequence (P08684 whole entry, canonical isoform): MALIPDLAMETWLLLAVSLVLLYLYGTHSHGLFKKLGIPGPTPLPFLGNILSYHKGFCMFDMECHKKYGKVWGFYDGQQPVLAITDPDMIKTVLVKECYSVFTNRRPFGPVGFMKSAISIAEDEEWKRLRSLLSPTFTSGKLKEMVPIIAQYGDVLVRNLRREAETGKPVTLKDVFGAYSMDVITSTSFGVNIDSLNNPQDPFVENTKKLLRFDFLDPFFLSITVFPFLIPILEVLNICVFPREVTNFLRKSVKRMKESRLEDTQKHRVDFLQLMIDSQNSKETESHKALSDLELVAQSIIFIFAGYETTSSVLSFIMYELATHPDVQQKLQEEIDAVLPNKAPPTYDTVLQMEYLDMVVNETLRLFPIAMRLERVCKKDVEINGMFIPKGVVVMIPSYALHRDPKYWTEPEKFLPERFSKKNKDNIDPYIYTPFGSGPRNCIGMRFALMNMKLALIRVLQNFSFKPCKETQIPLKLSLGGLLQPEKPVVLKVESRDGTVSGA

SMILES	microsomal CLint at 1 μM [1] [µL/min/mg]	inhibition at 3 μM (CYP3A4) [%]
C[C@@H]1CN(C(=O)[C@@H]2CN(c3ccc(=O)[nH]n3)C[C@H]2c2ccc(Cl)cn2)C[C@H](C)[C@@]1(O)c1ccccn1 [Example 28]	51	77
CC1CN(C(=O)C2CN(c3ccc(C#N)nn3)CC2c2ccc(F)cn2)CC(C)C1(O)c1ccccc1 (stereo not drawn) [Example 33]	72	19
CC1CN(C(=O)C2CN(c3ccc(=O)[nH]n3)CC2c2ccc(F)cn2)CC(C)C1(O)c1ccccc1 (stereo not drawn) [Example 37]	23	45
CC1CN(C(=O)C2CN(c3cncc(F)c3)CC2c2ccc(Cl)cn2)CC(C)C1(O)C1CC1 (stereo not drawn) [Example 24]	> 510	87
CC1CN(C(=O)C2CN(c3ccc(=O)n(C)n3)CC2c2ccc(F)cn2)CC(C)C1(O)c1ccc(F)cc1 (stereo not drawn) [Example 40]	< 8.5	64
C[C@@H]1CN(C(=O)[C@@H]2CN(c3ccc(Cl)nn3)C[C@H]2c2ccc(F)cn2)C[C@H](C)[C@@]1(O)c1ccccc1 [Example 35]	92	46
C[C@@H]1CN(C(=O)[C@@H]2CN(c3ccc(=O)[nH]n3)C[C@H]2c2ccc(F)cn2)C[C@H](C)[C@@]1(O)c1ccc(Cl)cc1 [Example 6, 6-[(3S,4S)-3-{[(3R,4R,5S)-4-(4-chlorophenyl)-4-hydroxy-3,5-dimethylpiperidin-1-yl]carbonyl}-4-(5-fluoropyridin-2-yl)pyrrolidin-1-yl]pyridazin-3(2H)-one]	< 8.5	32
C[C@@H]1CN(C(=O)[C@@H]2CN(c3ccc(Cl)nn3)C[C@H]2c2ccc(F)cn2)C[C@H](C)[C@@]1(O)c1ccc(Cl)cc1 [Example 5, (3R,4R,5S)-4-(4-chlorophenyl)-1-{[(3S,4S)-1-(6-chloropyridazin-3-yl)-4-(5-fluoropyridin-2-yl)pyrrolidin-3-yl]carbonyl}-3,5-dimethylpiperidin-4-ol]	27	34
C[C@@H]1CN(C(=O)[C@@H]2CN(c3cccnn3)C[C@H]2c2ccc(Cl)cn2)C[C@H](C)[C@@]1(O)c1ccccn1 [Example 9, (3R,4R,5S)-1-{[(3S,4S)-4-(5-chloropyridin-2-yl)-1-pyridazin-3-ylpyrrolidin-3-yl]carbonyl}-3,5-dimethyl-4-pyridin-2-ylpiperidin-4-ol]	411	68
C[C@@H]1CN(C(=O)[C@@H]2CN(c3ccc(=O)n(C)n3)C[C@H]2c2ccc(F)cn2)C[C@H](C)[C@@]1(O)c1ccc(Cl)cc1 [Example 7, 6-[(3S,4S)-3-{[(3R,4R,5S)-4-(4-chlorophenyl)-4-hydroxy-3,5-dimethylpiperidin-1-yl]carbonyl}-4-(5-fluoropyridin-2-yl)pyrrolidin-1-yl]-2-methylpyridazin-3(2H)-one]	11	19
C[C@@H]1CN(C(=O)[C@@H]2CN(c3ccc(C#N)nn3)C[C@H]2c2ccc(C#N)cn2)C[C@H](C)[C@@]1(O)c1ccc(F)cc1 [Example 46]	< 8.5	74
CC1CN(C(=O)C2CN(c3ccc(=O)n(C)n3)CC2c2ccc(Cl)cn2)CC(C)C1(O)c1ccc(Cl)cc1 (stereo not drawn) [Example 23]	< 8.5	35
C[C@@H]1CN(C(=O)[C@@H]2CN(c3ccc(C#N)cn3)C[C@H]2c2ccc(Cl)cn2)C[C@H](C)[C@@]1(O)c1ccc(F)cc1 [Example 1, 6-[(3S,4S)-3-(5-Chloropyridin-2-yl)-4-{[(3R,4R,5S)-4-(4-fluorophenyl)-4-hydroxy-3,5-dimethylpiperidin-1-yl]carbonyl}pyrrolidin-1-yl]nicotinonitrile]	< 8.5	54
COc1ccc(N2CC(C(=O)N3CC(C)C(O)(C4CC4)C(C)C3)C(c3ccc(Cl)cn3)C2)nn1 (stereo not drawn) [Example 26]	> 510	61
C[C@@H]1CN(C(=O)[C@@H]2CN(c3ccc(C#N)nn3)C[C@H]2c2ccc(F)cn2)C[C@H](C)[C@@]1(O)c1ccc(Cl)cc1 [Example 32]	< 8.5	31
C[C@@H]1CN(C(=O)[C@@H]2CN(c3ccc(C#N)nn3)C[C@H]2c2ccc(Cl)cn2)C[C@H](C)[C@@]1(O)c1ccc(F)cc1 [Example 2, 6-[(3S,4S)-3-(5-Chloropyridin-2-yl)-4-{[(3R,4R,5S)-4-(4-fluorophenyl)-4-hydroxy-3,5-dimethylpiperidin-1-yl]carbonyl}pyrrolidin-1-yl]pyridazine-3-carbonitrile]	31	64
COc1ccc(N2C[C@@H](C(=O)N3C[C@@H](C)[C@](O)(c4ccc(F)cc4)[C@@H](C)C3)[C@H](c3ccc(Cl)cn3)C2)nn1 [Example 4, (3R,4R,5S)-1-{[(3S,4S)-4-(5-chloropyridin-2-yl)-1-(6-methoxypyridazin-3-yl)pyrrolidin-3-yl]carbonyl}-4-(4-fluorophenyl)-3,5-dimethylpiperidin-4-ol]	74	38
COc1ccc([C@@H]2CN(c3ccc(C#N)nn3)C[C@H]2C(=O)N2C[C@@H](C)[C@](O)(c3ccc(F)cc3)[C@@H](C)C2)nc1 [Example 43]		44
C[C@@H]1CN(C(=O)[C@@H]2CN(c3cncc(F)c3)C[C@H]2c2ccc(Cl)cn2)C[C@H](C)[C@@]1(O)c1ccccn1 [Example 8, (3R,4R,5S)-1-{[(3S,4S)-4-(5-chloropyridin-2-yl)-1-(5-fluoropyridin-3-yl)pyrrolidin-3-yl]carbonyl}-3,5-dimethyl-4-pyridin-2-ylpiperidin-4-ol]	> 510	94
CC1CN(C(=O)C2CN(c3cncc(F)c3)CC2c2ccc(Cl)cn2)CC(C)C1(O)c1ccc(F)cc1 (stereo not drawn) [Example 25]	172	16
CC1CN(C(=O)C2CN(c3ccc(=O)n(C)n3)CC2c2ccc(Cl)cn2)CC(C)C1(O)c1ccccc1 (stereo not drawn) [Example 21]	58.5	25
CC1CN(C(=O)C2CN(c3ccc(C#N)nn3)CC2c2ccc(Cl)cn2)CC(C)C1(O)c1ccccn1 (stereo not drawn) [Example 30]	69.5	38
COc1ccc([C@@H]2CN(c3ccc(=O)[nH]n3)C[C@H]2C(=O)N2C[C@@H](C)[C@](O)(c3ccc(Cl)cn3)[C@@H](C)C2)nc1 [Example 41]	30	52
